Source: patent US20030144346A1, “Methods and compositions for regulation of 5-alpha reductase activity” (priority 1997, published 2003)
Values belong to the compound of their own block, whether it stands above or below them.

Columns and labels:
[1] = target: T1, type 1 human 5α-reductase (HRED1) (Homo sapiens, UniProt P18405); assay: Whole cell assay of 5α-reductase, type 1 isoenzyme; assay type: cell-based; set-up: expressed in transfected cells; host or cells: rat 1A cells infected with pMV7 retrovirus;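 note: intact rat 1A cells engineered to express the human type 1 5α-reductase isozyme serve as the enzyme source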
T1 sequence (P18405 1-259): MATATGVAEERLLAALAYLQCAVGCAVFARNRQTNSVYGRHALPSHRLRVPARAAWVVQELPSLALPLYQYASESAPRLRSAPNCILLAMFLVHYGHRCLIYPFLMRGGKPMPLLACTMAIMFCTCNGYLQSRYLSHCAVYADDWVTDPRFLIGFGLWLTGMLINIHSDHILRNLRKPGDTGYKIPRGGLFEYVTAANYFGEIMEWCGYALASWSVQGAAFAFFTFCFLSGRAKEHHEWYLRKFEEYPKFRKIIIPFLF

[2] = target: T2, type 2 human 5α-reductase (HRED2) (Homo sapiens, UniProt P31213); assay: Whole cell assay of 5α-reductase, type 2 isoenzyme; assay type: cell-based; set-up: expressed in transfected cells; host or cells: rat 1A cells infected with pMV7 retrovirus; conditions: for IC50: Table 7, read-out: HCRED2 IC50;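 for all read-outs here: intact rat 1A cells genetically modified to carry human type 2 5α-reductase served as the enzyme source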
T2 sequence (P31213 1-254): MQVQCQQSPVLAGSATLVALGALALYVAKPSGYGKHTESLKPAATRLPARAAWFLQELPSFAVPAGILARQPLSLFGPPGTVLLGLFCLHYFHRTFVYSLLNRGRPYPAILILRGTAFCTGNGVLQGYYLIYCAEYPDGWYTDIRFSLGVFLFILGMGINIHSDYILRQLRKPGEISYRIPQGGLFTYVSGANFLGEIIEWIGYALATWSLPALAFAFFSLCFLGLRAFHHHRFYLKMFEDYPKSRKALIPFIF

[3] = target: T2, type 2 human 5α-reductase (HRED2); assay: Cell free assay of 5α-reductase, microsomes of rat 1A cells expressing type 2 isoenzyme (HRED2); assay type: biochemical; set-up: expressed in transfected cells; host or cells: rat 1A cells infected with pMV7 retrovirus; microsomes; conditions: for HRED2 % Inhibition @ 100 μM: Table 5;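 for all read-outs here: labeled testosterone and its product dihydrotestosterone measured in microsomal reaction extracts via thin layer chromatography plus radioanalytic scanning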
[4] = target: T1, type 1 human 5α-reductase (HRED1); assay: Cell free assay of 5α-reductase, microsomes of rat 1A cells expressing type 1 isoenzyme (HRED1); assay type: biochemical; set-up: expressed in transfected cells; host or cells: rat 1A cells infected with pMV7 retrovirus; microsomes; conditions: for HRED1 % Inhibition @ 100 μM: Table 5;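 for all read-outs here: microsomes from rat 1A cells expressing human type 1 5α-reductase, conversion of radiolabeled testosterone to dihydrotestosterone quantified by thin layer chromatography with radioanalytic scanning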
[5] = 100 μM, cell free assay, Table 4, read-out: HRED2 % Inhibition @ 100 μM
[6] = cell free assay, Table 4 quinones, read-out: HRED2 IC50
[7] = 100 μM, cell free assay, Table 4, read-out: HRED1 % Inhibition @ 100 μM
[8] = cell free assay, Table 4 quinones, read-out: HRED1 IC50
[9] = cell free assay, Table 2 catechols, read-out: HRED2 IC50
[10] = cell free assay, Table 2 catechols, read-out: HRED1 IC50
[11] = 100 uM, cell free assay, Table 1
[12] = cell free assay, Table 1 flavanoids, read-out: HRED2 IC50
[13] = cell free assay, Table 1 flavanoids, read-out: HRED1 IC50
[14] = whole cell assay, Table 7, read-out: HCRED1 IC50
[15] = 100 uM, cell free assay, Table 2
[16] = cell free assay, Table 5 epigallocatechin derivatives, read-out: HRED2 IC50
[17] = cell free assay, Table 5 epigallocatechin derivatives, read-out: HRED1 IC50

inhibition at 100 µM [3, 5]: 7% | IC50 [3, 6]: > 100 µM | inhibition at 100 µM [4, 7]: 26% | IC50 [4, 8]: > 100 µM
Structure (SMILES): O=C1c2ccccc2C(=O)c2c(O)ccc(O)c21 [Quinizarin]

inhibition at 100 µM ([3]; 100 uM, cell free assay, Table 2, read-out: HRED2 % Inhibition @ 100 uM): 58% | IC50 [3, 9]: 84 µM | inhibition at 100 µM ([4]; 100 uM, cell free assay, Table 2, read-out: HRED1 % Inhibition @ 100 uM): 98% | IC50 [4, 10]: 7 µM
Structure (SMILES): O=c1c(Br)cc2c(-c3ccccc3S(=O)(=O)O)c3cc(Br)c(O)c(O)c3oc-2c1O [Bromopyrogallol Red]

HRED1 % Inhibition @ 100 μM ([1]; whole cell assay, Table 7): 89% | IC50 [1, 14]: 58 µM | HRED2 % Inhibition @ 100 μM ([2]; 100 μM, Table 7): 83% | IC50 [2]: 72 µM
Structure (SMILES): CCCCCCCC(=O)OC1Cc2c(O)cc(O)cc2OC1c1cc(O)c(O)c(O)c1 (centres unmarked) [HZIV 166]

inhibition at 100 µM ([1]; whole cell assay, Table 7): 0% | IC50 [1, 14]: > 100 µM | inhibition at 100 µM ([2]; 100 μM, Table 7): 0% | IC50 [2]: > 100 µM
Structure (SMILES): CC(C)OC(=O)c1cc(O)c(O)c(O)c1 [Isopropyl Gallate]

HRED2 % Inhibition @ 100 μM ([3]; 100 μM, cell free assay): 94% | IC50 [3, 16]: 67 µM | HRED1 % Inhibition @ 100 μM ([4]; 100 μM, cell free assay): 99% | IC50 [4, 17]: 20 µM
Structure (SMILES): O=C(C=Cc1cc(O)c(O)c(O)c1)OC1Cc2c(O)cc(O)cc2OC1c1cc(O)c(O)c(O)c1 (centres unmarked) [HZIV 134]

IC50 [3, 12]: > 100 µM | IC50 [4, 13]: > 100 µM
Structure (SMILES): O=c1c(O)c(-c2ccc(O)cc2O)oc2cc(O)cc(O)c12 [Morin]

HRED2 % Inhibition @ 100 μM ([3]; 100 μM, cell free assay): 0% | IC50 [3, 16]: > 100 µM | HRED1 % Inhibition @ 100 μM ([4]; 100 μM, cell free assay): 17% | IC50 [4, 17]: > 100 µM
Structure (SMILES): O=C(O)OC1Cc2c(O)cc(O)cc2OC1c1cc(O)c(O)c(O)c1 (centres unmarked) [HZIV 109]

HRED2 % Inhibition @ 100 μM ([3]; 100 μM, cell free assay): 24% | IC50 [3, 16]: > 100 µM | HRED1 % Inhibition @ 100 μM ([4]; 100 μM, cell free assay): 85% | IC50 [4, 17]: 48 µM
Structure (SMILES): O=C(OC1Cc2c(O)cc(O)cc2OC1c1cc(O)c(O)c(O)c1)c1ccccc1 (centres unmarked) [HZIV 74]

Second part, the compound before the results:

Structure (SMILES): O=C(O)c1cc(O)c(O)c(O)c1 [Gallic Acid]
IC50 [1]: > 100 µM | inhibition at 100 µM ([1]; whole cell assay, Table 7): 13% | inhibition at 100 µM ([2]; 100 μM, Table 7): 0% | IC50 [2]: > 100 µM

Structure (SMILES): O=c1cc(-c2ccccc2)oc2ccc3ccccc3c12 [Beta-napthoflavone]
HRED2 % Inhibition @ 100 uM [3, 11]: 4% | IC50 [3, 12]: > 100 µM | HRED1 % Inhibition @ 100 uM [4, 11]: 3% | IC50 [4, 13]: > 100 µM

Structure (SMILES): OC1c2ccccc2-c2ccccc2C1O (centres unmarked) [Cnc]
HRED2 % Inhibition @ 100 uM [3, 15]: (−75) % | IC50 [3, 9]: > 100 µM | HRED1 % Inhibition @ 100 uM [4, 15]: 42% | IC50 [4, 10]: > 100 µM

Structure (SMILES): COc1cc(/C=C/CO)ccc1O [Coniferol]
IC50 ([3]; read-out: IC50, type 2 isoenzyme): > 100 µM | IC50 ([4]; cell free assay, Table 3 curcumin and related compounds, read-out: HRED1 IC50): > 100 µM | IC50 ([4]; cell-free assay, read-out: IC50, type 1 isoenzyme): > 100 µM

Structure (SMILES): O=C1c2ccccc2C(=O)c2ccccc21 [Anthraquinone]
IC50 [3]: > 100 µM | inhibition at 100 µM ([3]; read-out: HRED2 % Inhibition @ 100 μM): 9% | IC50 ([3]; read-out: HRED2 IC50, cell free assay, Table 4 quinones): > 100 µM | IC50 [4]: > 100 µM | inhibition at 100 µM ([4]; read-out: HRED1 % Inhibition @ 100 μM): 6% | IC50 ([4]; read-out: HRED1 IC50, cell free assay, Table 4 quinones): > 100 µM

Structure (SMILES): O=c1cc(-c2ccccc2)oc2ccccc12 [Flavone]
inhibition at 100 µM ([3]; 100 uM, cell free assay, Table 1, read-out: HRED2 % Inhibition @ 100 uM): -52% | IC50 [3, 12]: > 100 µM | inhibition at 100 µM ([4]; 100 uM, cell free assay, Table 1, read-out: HRED1 % Inhibition @ 100 uM): 20% | IC50 [4, 13]: > 100 µM

Structure (SMILES): O=c1c(-c2ccc(O)cc2)coc2cc(O)ccc12 [Daidzein]
HRED1 % Inhibition @ 100 μM ([1]; whole cell assay, Table 7): 9% | inhibitory activity against type 2 isoenzyme, in words ([3]; cell-free assay): effective inhibitors | inhibitory activity in the whole cell assay, type 2 isoenzyme, in words [2]: significant inhibitory activity

Structure (SMILES): CC(C)=CCC1=C(O)C(=O)c2ccccc2C1=O [Lapachol]
inhibition at 100 µM [3, 5]: 9% | IC50 [3, 6]: > 100 µM | inhibition at 100 µM [4, 7]: 30% | IC50 [4, 8]: > 100 µM
